{
  "source": "patent US5498522A",
  "about": "“Methods for the use of spermidine/spermine N^1 -acetyltransferase as a prognostic indicator and/or a tumor response marker” (priority 1993, dated 1996)",
  "key": {"[1]": {"system": "MALME-3 human melanoma xenografts", "test": "antitumor response against MALME-3 human melanoma xenografts in mice", "type": "in vivo", "details": "for suppression of tumor growth after cessation of treatment: every 8 hours for 6 days, most effective dose; for % T/C (tumor growth suppression) / Regrowth Delay (time for median tumor volume to reach 200 mm^3): maximally tolerated dose", "method": "b. Anticancer effects of polyamine analog therapy are determined by assessing the antiproliferative activity on the treated solid tumor by measuring one or more responses including tumor growth suppression, tumor regression, or repression of regrowth. Tumors were measured in three dimensions and tumor volume was calculated according to the formula:\n[…] where 1 represents length; w--width; and h--height. Tumor sizes were monitored 2 times/week until the median volume (V=0.4(a^2 ×b) where a is the smaller of the two perpendicular tumor diameters). As an indication of drug toxicity, animal weights were also recorded at the time of tumor volume measurement. Statistical analyses were performed on mouse tumor size and weight parameters by using the Mann-Whitney test.\nTumor growth suppression was measured by plotting the mean tumor volume versus the number of days post-inoculation with polyamine analog (growth curve analyses). Suppression is determined by comparison with the growth of untreated tumors (%T/C). More specifically,: %T/C is (treated tumor volume minus pretreatment volume) divided by (control tumor volume minus pretreatment volume)×100. Typically this is measured either when the control tumor volume reaches 1000 mm^3, or at the last day of treatment.\nTumor regression is measured as a percentage representing the average percentage of decrease in tumor volume from the largest pretreatment volume value.\nRepression of regrowth is represented as regrowth delay, determined as the number of days following cessation of treatment when median group tumor volume exceeds 200 mm^3 (an arbitrary indication of regrowth which was determined statistically).\n(§1) For the in-vivo treatment, 10^7 cultured MALME-3 melanoma cells were injected subcutaneously into 20 gram female nude athymic mice. After four in-vivo passages, tumor was removed and 40-50 mm^3 fragments were selected for implantation into mice via subcutaneous trocar implantation. Mice developing palpable tumors of a similar size were divided into different treatment groups comprising mice per group. Following treatment of the mice with a dosage approaching the maximally tolerated dose of the respective bis-ethyl spermine analog, the tumor cells comprising the human xenograft were removed and assayed for SSAT induction. […] Also indicated in Table 1, the level of SSAT induction in-vivo by BESPM was less than 20 fold that of BEHSPM, and the level of SSAT induction in-vivo by BENSPM was about 6 fold greater than that of BESPM. Thus, a conclusion from the results depicted in Table 1 is the rank order in effectiveness of the his-ethyl spermine analogs to induce SSAT levels in-vitro correlated well with their effectiveness to induce SSAT levels in-vivo.\nThe in-vivo antitumor activities of BESPM, BEHSPM, and BENSPM, were compared against various human xenografts in nude athymic mice. Cultured human tumor cells were first passaged several times in female HSD nude athymic mice. Fragments of resultant tumor were implanted into mice via subcutaneous trocar implantation. Mice of different treatment groups were treated with one or more of the three bis-ethyl spermine analogs BESPM, BEHSPM, and BENSPM. Anti-proliferative activity was monitored by antitumor responses including tumor growth suppression, tumor regression, or repression of regrowth.\nAs illustrated in Table 1 with MALME-3 human melanoma cells, the rank order effectiveness of three polyamine analogs in inducing SSAT levels both in-vitro and in-vivo were BENSPM>BESPM>BEHSPM, with substantial differences in induction between them. The same three polyamine analogs were analyzed for their effectiveness in inducing a potent antitumor response in-vivo. Mice developing palpable tumors of a similar size were divided into different treatment groups comprising 5 mice per treatment group, and 10 control mice per treatment group. […]"}, "[2]": {"system": "spermidine/spermine N^1 -acetyltransferase (SSAT)", "test": "SSAT induction in human tumor xenografts in athymic mice in-vivo", "details": "for level of induction of SSAT: 40 mg/kg every 8 hours for 5 days, 16 hours after final injection; for Avg. SSAT Activity: measured 24 hours after final treatment (Table 8)", "method": "as §1\nIn accordance with the above methods for assaying the induction of SSAT levels in tumor cell lines treated in-vitro and xenografts treated in-vivo, the induction pattern also correlates fairly well amongst different clonal lines of a particular tumor type. This can be illustrated with melanoma clonal lines LOX, SH-1, PANUT-3, and MALME-3.\nIn accordance with the above methods for assaying the induction of SSAT levels in tumor cell lines treated in-vitro and xenografts treated in-vivo, the induction pattern also correlates fairly well amongst carcinomas of solid organs. This can be illustrated with malignant clonal lines A121, A549, and HT29.\nNote that the highest drug dosages for each analog approach the maximally tolerated dosage for that particular analog (for example, BEHSPM at 6 mg/kg; BESPM at […]; and BENSPN at 80 mg/kg were tolerated by treated animals, whereas higher doses were toxic). Tumor cells comprising the human xenograft were removed from two animals of each group and assayed for SSAT induction. […] Thus, the antitumor activity for these three analogs correlated with their ability to induce SSAT activity in the same tumor cells growing in-vitro and in-vivo, with the rank order of effectiveness in inducing SSAT levels being: BENSPM>BESPM>BEHSPM (Table 4).\nAdditional studies were performed using BENSPM treatment of human xenografts to determine if there exists a correlation between antitumor activity and SSAT induction in-vivo. SSAT activity was measured using cell extracts obtained by sonication, in 5 mMN-2 hydroxypiperazine-N^2 -ethanesulfonic acid (pH 7.2) containing 1 mM dithiothreitol, of tumor biopsy from treated mice, and tumor biopsy from control mice. The cytosolic extract resulting from a 1 hour centrifugation at 35,000 rpm in a Spinco 40 rotor was used as the source of the enzyme for the assay of SSAT activity. The cytosolic extract was incubated with 10 μmol HEPES buffer, pH7.8, 0.15 nmol spermidine, and 0.5 nmol [1-^14 C] acetylCoenzyme A, in a final volume of 50 μl, for 5 minutes at 37° C. The reaction was stopped by chilling, the addition of 20 μl of 0.5 M NH2 OH.Cl, and heating in a boiling water bath for 3 minutes. After centrifugation to remove precipitated protein, 50 μl of the reaction was spotted on a disc of P-81 phosphocellulose and counted for radioactivity. Protein concentration was also measured so that enzyme activity was expressed as picomoles of acetylspermine synthesized per minute per milligram of protein.\nTo illustrate this embodiment, SSAT activity was analyzed in tumor tissue and normal tissue from 2 mice following BENSPM treatment of 5 mice at 40 mg/kg, three times daily, for 6 days (Porter et al., 1993, supra). […]"}, "[3]": {"system": "spermidine/spermine N^1 -acetyltransferase (SSAT)", "details": "cited from earlier work"}, "[4]": {"system": "ornithine decarboxylase (ODC)", "test": "ODC activity in human melanoma xenografts in-vivo"}, "[5]": {"details": "MALME-3 xenograft, maximally tolerated dose, every 8 hours for 6 days"}, "[6]": {"details": "MALME-3 xenograft, 40 mg/kg every 8 hours for 5 days"}},
  "data": [
    {"smiles": "CCNCCCNCCCCNCCCNCC", "note": "[BESPM, N^1,N^12-bis(ethyl)spermine]", "values": [
      {"measurement": "suppression of tumor growth after cessation of treatment", "setting": "[1]; MALME-3 xenograft", "result": 30, "unit": "days"},
      {"measurement": "% T/C (tumor growth suppression)", "setting": "[1]; MALME-3 xenograft", "result": 34, "unit": "%"},
      {"measurement": "Regrowth Delay (time for median tumor volume to reach 200 mm^3)", "setting": "[1]; MALME-3 xenograft", "result": 27, "unit": "days"},
      {"measurement": "antitumor activity", "setting": "[1]; MALME-3 xenografts", "result": "significant antitumor activity"},
      {"measurement": "SSAT induction in-vivo relative to BEHSPM", "setting": "[2]; MALME-3 xenograft", "result": "less than 20 fold"},
      {"measurement": "SSAT levels after treatment", "setting": "[3]; MALME-3, in-vitro", "result": "extreme induction of SSAT levels"}
    ]},
    {"smiles": "CCNCCCCNCCCCNCCCCNCC", "note": "[BEHSPM, N^1,N^14 -bis(ethyl)homospermine]", "values": [
      {"measurement": "suppression of tumor growth after cessation of treatment", "setting": "[1]; MALME-3 xenograft", "result": 18, "unit": "days"},
      {"measurement": "% T/C (tumor growth suppression)", "setting": "[1]; MALME-3 xenograft", "result": 43, "unit": "%"},
      {"measurement": "Regrowth Delay (time for median tumor volume to reach 200 mm^3)", "setting": "[1]; MALME-3 xenograft", "result": 14, "unit": "days"},
      {"measurement": "antitumor activity", "setting": "[1]; MALME-3 xenografts", "result": "less effective than BESPM"},
      {"measurement": "SSAT induction in-vivo", "setting": "[2]; [5]", "result": 125, "unit": "pmol/min/mg"}
    ]},
    {"smiles": "CCNCCCNCCCNCCCNCC", "note": "[BENSPM, N^1,N^11 -bis(ethyl)norspermine]", "values": [
      {"measurement": "% T/C at 1 g", "setting": "[1]; MALME-3M, BENSPM at 80 mg/kg", "result": "< 0", "unit": "%"},
      {"measurement": "Tumor Regression", "setting": "[1]; MALME-3M, BENSPM at 80 mg/kg", "result": "Present"},
      {"measurement": "Regrowth Delay", "setting": "[1]; MALME-3M, BENSPM at 80 mg/kg, dt 13 days", "result": "> 4.8", "unit": "× dt"},
      {"measurement": "No Regrowth", "setting": "[1]; MALME-3M, BENSPM at 80 mg/kg, for duration of experiment", "result": "2/5"},
      {"measurement": "lack of regrowth (FIG. 6)", "setting": "[1]; [6]", "result": "two mice examined of the remaining five mice treated"},
      {"measurement": "regrowth delay (FIG. 6)", "setting": "[1]; [6]", "result": "significant regrowth delay"},
      {"measurement": "tumor regression (FIG. 6)", "setting": "[1]; [6]", "result": "showed tumor regression"},
      {"measurement": "suppression of tumor growth after cessation of treatment", "setting": "[1]; MALME-3 xenograft", "result": 40, "unit": "days"},
      {"measurement": "% T/C (tumor growth suppression)", "setting": "[1]; MALME-3 xenograft", "result": 10, "unit": "%"},
      {"measurement": "Regrowth Delay (time for median tumor volume to reach 200 mm^3)", "setting": "[1]; MALME-3 xenograft", "result": 37, "unit": "days"},
      {"measurement": "antitumor activity", "setting": "[1]; MALME-3 xenografts", "result": "most effective of the three"},
      {"measurement": "apparent curing of xenografts on retreatment", "setting": "[1]; MALME-3 xenografts, retreatment 2 weeks later", "result": "about 20%"},
      {"measurement": "ODC levels", "setting": "[4]; MALME-3 study", "result": "ODC and SAMDC levels were not suppressed"},
      {"measurement": "ODC levels", "setting": "[4]; PANUT-3 study", "result": "ODC and SAMDC levels were not suppressed"},
      {"measurement": "SSAT induction in-vivo", "setting": "[2]; A121 xenograft, BENSPM 40 mg/kg 3x/day 6 days, 16 hours post-treatment", "result": "2,905 pmol/min/mg"},
      {"measurement": "SSAT activity", "setting": "[2]; A121 xenograft, measured 24 hours after final treatment (Table 9)", "result": 2905, "unit": "pmol/min/mg"},
      {"measurement": "SSAT induction in-vivo", "setting": "[2]; A549 xenograft, BENSPM 40 mg/kg 3x/day 6 days, 16 hours post-treatment", "result": "14,295 pmol/min/mg"},
      {"measurement": "SSAT activity", "setting": "[2]; A549 xenograft, measured 24 hours after final treatment (Table 9)", "result": 14295, "unit": "pmol/min/mg"},
      {"measurement": "SSAT induction in-vivo", "setting": "[2]; HT29 xenograft, BENSPM 40 mg/kg 3x/day 6 days, 16 hours post-treatment", "result": "3,535 pmol/min/mg"},
      {"measurement": "SSAT activity", "setting": "[2]; HT29 xenograft, measured 24 hours after final treatment (Table 9)", "result": 3535, "unit": "pmol/min/mg"},
      {"measurement": "level of induction of SSAT", "setting": "[2]; LOX xenograft", "result": 160, "unit": "pmol/mg/min"},
      {"measurement": "SSAT induction in-vivo", "setting": "[2]; LOX xenograft, BENSPM 40 mg/kg 3x/day 6 days, 16 hours post-treatment", "result": "160 (200/115) pmol/min/mg"},
      {"measurement": "Avg. SSAT Activity", "setting": "[2]; LOX xenograft", "result": 157, "unit": "pmol/min/mg"},
      {"measurement": "Avg. SSAT Activity", "setting": "[2]; MALME-3M xenograft", "result": "13,710 pmol/min/mg"},
      {"measurement": "SSAT induction in-vivo relative to BESPM", "setting": "[2]; MALME-3 xenograft", "result": "about 6 fold"},
      {"measurement": "level of induction of SSAT", "setting": "[2]; MALME-3 xenograft", "result": "24,018 pmol/mg/min"},
      {"measurement": "SSAT induction in-vivo", "setting": "[2]; MALME-3 xenograft, BENSPM 40 mg/kg 3x/day 6 days, 16 hours post-treatment (Table 2)", "result": "13,710 (11,490/15,930) pmol/min/mg"},
      {"measurement": "SSAT induction in-vivo", "setting": "[2]; [5]", "result": "15,700 pmol/min/mg"},
      {"measurement": "SSAT activity", "setting": "[2]; PANUT-3 tumor, 80 mg/kg, 2 wks post-treatment", "result": 130, "unit": "pmol/min/mg"},
      {"measurement": "SSAT induction in-vivo", "setting": "[2]; PANUT-3 xenograft, BENSPM 40 mg/kg 3x/day 6 days, 16 hours post-treatment", "result": "25,575 (23,140/22,010) pmol/min/mg"},
      {"measurement": "Avg. SSAT Activity", "setting": "[2]; PANUT-3 xenograft", "result": "22,750 pmol/min/mg"},
      {"measurement": "SSAT induction in-vivo", "setting": "[2]; SH-1 xenograft, BENSPM 40 mg/kg 3x/day 6 days, 16 hours post-treatment", "result": "7,150 (7,495/6,810) pmol/min/mg"},
      {"measurement": "Avg. SSAT Activity", "setting": "[2]; SH-1 xenograft", "result": "7,150 pmol/min/mg"},
      {"measurement": "SSAT induction, relative", "setting": "[2]; treated in-vitro and in-vivo, compared to two other analogs", "result": "greatest induction of SSAT"},
      {"measurement": "SSAT induction in-vitro, PANUT-3 versus MALME-3", "setting": "[3]; BENSPM", "result": "induced to greater levels in PANUT-3 than in MALME-3"}
    ]}
  ]
}
